Data: publication PMC6102747 (Molecular Medicine Reports, 2018)
Like-named read-outs stand apart in the source and are kept apart here.

What was measured:
Gstm1 = assay: Western blot protein expression in liver; type: in vivo, rats; conditions: vs control
Cyp3a1 = type: in vivo, rats; conditions: vs control
Mrp2 = assay: Western blot protein expression in small intestine and liver; type: in vivo, rats; conditions: vs control, P<0.001
[1] = Pharmacokinetics of CsA after oral administration; type: in vivo, Sprague-Dawley rats; conditions: rats; for increase in the CL/F of CsA / increase in the V/F of CsA / decrease in AUC0-t of CsA / decrease in AUC0-∞ of CsA / decrease in Cmax of CsA: oral CsA 10 mg/kg; for decrease in AUC0-t of CsA / decrease in AUC0-∞ of CsA / decrease in Cmax of CsA: vs control; for decrease in Cmax of CsA: P>0.05
Pxr = assay: RT-qPCR mRNA expression in small intestine and liver; type: in vivo, rats; conditions: small intestine, vs control, P<0.001
[2] = middle-dose Q3GA 5 mg/kg i.v. 7 days
[3] = high-dose Q3GA 10 mg/kg i.v. 7 days
[4] = low-dose Q3GA 2.5 mg/kg i.v. 7 days

Compound: O=c1c(O[C@@H]2O[C@H](CO)[C@@H](O)[C@H](O)[C@H]2O)c(-c2ccc(O)c(O)c2)oc2cc(O)cc(O)c12 [Q3GA, Quercetin-3-O-β-D-glucoside]
- increase in GSTM1 protein expression (Gstm1; high-dose Q3GA 10 mg/kg i.v. 7 days, P<0.05): 229.75%
- increase in GSTM1 protein expression (Gstm1; low-dose Q3GA 2.5 mg/kg i.v. 7 days, P<0.001): 417.29%
- increase in GSTM1 protein expression (Gstm1; [2]): 159.37%
- decrease in CYP3A1 protein expression (Cyp3a1; liver, high-dose Q3GA 10 mg/kg i.v. 7 days, P<0.01): 52.99%
- decrease in CYP3A1 protein expression (Cyp3a1; liver, low-dose Q3GA 2.5 mg/kg i.v. 7 days, P<0.01): 57.66%
- decrease in CYP3A1 protein expression (Cyp3a1; liver, middle-dose Q3GA 5 mg/kg i.v. 7 days, P<0.05): 43.95%
- decrease in CYP3A1 protein expression (Cyp3a1; small intestine, high-dose Q3GA 10 mg/kg i.v. 7 days, P<0.001): 62.95%
- decrease in CYP3A1 protein expression (Cyp3a1; small intestine, low-dose Q3GA 2.5 mg/kg i.v. 7 days, P<0.001): 75.25%
- decrease in CYP3A1 protein expression (Cyp3a1; small intestine, middle-dose Q3GA 5 mg/kg i.v. 7 days, P<0.01): 39.22%
- decrease in MRP2 protein expression (Mrp2; liver, low-dose Q3GA 2.5 mg/kg i.v. 7 days): 70.70%
- decrease in MRP2 protein expression (Mrp2; small intestine, high-dose Q3GA 10 mg/kg i.v. 7 days): 50.84%
- decrease in MRP2 protein expression (Mrp2; small intestine, low-dose Q3GA 2.5 mg/kg i.v. 7 days): 75.95%
- decrease in MRP2 protein expression (Mrp2; small intestine, middle-dose Q3GA 5 mg/kg i.v. 7 days): 42.60%
- effect on bioavailability of oral CsA ([1]; Q3GA 2.5, 5 or 10 mg/kg i.v. for 7 consecutive days): reduced the bioavailability of oral CsA
- increase in the CL/F of CsA ([1]; Q3GA 5 mg/kg daily i.v. 7 days): 72.71%
- increase in the V/F of CsA ([1]; Q3GA 5 mg/kg daily i.v. 7 days, P<0.01): 103.32%
- increase in the CL/F of CsA ([1]; Q3GA 10 mg/kg daily i.v. 7 days): 79.57%
- increase in the V/F of CsA ([1]; Q3GA 10 mg/kg daily i.v. 7 days, P<0.05): 93.19%
- decrease in AUC0-t of CsA [1, 3]: 47.79%
- decrease in AUC0-∞ of CsA [1, 3]: 46.30%
- decrease in Cmax of CsA [1, 3]: 40.41%
- decrease in AUC0-t of CsA [1, 4]: 34.26%
- decrease in AUC0-∞ of CsA [1, 4]: 34.66%
- decrease in Cmax of CsA [1, 4]: 33.12%
- decrease in AUC0-t of CsA [1, 2]: 36.32%
- decrease in AUC0-∞ of CsA [1, 2]: 34.81%
- increase in Pxr mRNA expression (Pxr; [3]): 200.21%
- increase in Pxr mRNA expression (Pxr; [4]): 415.18%
- increase in Pxr mRNA expression (Pxr; [2]): 130.03%
